Read-outs that look alike come from different tables or passages of the source.
Legend:
human T cells = assay: T cell cytokine SFC response to cross-reactive CD4 epitopes (Tables 6-8); assay type: cell-based; conditions: for Total SFC: cross-reactive CD4 non-spike SARS-CoV-2 epitopes, all cytokines; for IFNg / IL5 / IL13: cross-reactive CD4 non-spike epitopes; for IFNg: IFNg spot forming cells; for IL5: IL5 spot forming cells; for IL13: IL13 spot forming cells
[1] = system: SARS-CoV-2-specific CD8+ T cells (CD69+CD137+) in PBMC; assay type: cell-based, human
[2] = system: SARS-CoV-2-specific CD4+ T cells (OX40+CD137+) in PBMC; assay type: cell-based, human
[3] = CD4+ T cell epitopes identified by AIM assay, share of donors responding
[4] = CD4+ T cell epitopes identified by AIM assay, sum of response per responding donor
[5] = CD4+ T cell epitopes identified by AIM assay, total response
[6] = CD4+ T cell epitopes identified by AIM assay, percent of tested donors responding
[7] = CD4+ T cell epitopes identified by AIM assay, total response summed over donors

Substance | Frequency of response (%) [2, 3] | Magnitude by # of responding donors [2, 4] | Sum of response [2, 5] | also measured
246 (DAALALLLLDRLNQL) [compound 246] | – | – | – | Total SFC (human T cells): 3813 SFC; IFNg (human T cells): 3520; IL5 (human T cells): 0; IL13 (human T cells): 0
SEPVLKGVKL | – | – | – | Frequency of positive response [1]: 40; Magnitude of response [1]: 251; Sum of response [1]: 501
EPVLKGVKL | – | – | – | Frequency of positive response [1]: 20; Magnitude of response [1]: 313; Sum of response [1]: 313
245 (DDQIGYYRRATRRIR) [compound 245] | – | – | – | Total SFC (human T cells): 787 SFC; IFNg (human T cells): 400; IL5 (human T cells): 0; IL13 (human T cells): 120
247 (LLLLDRLNQLESKMS) [compound 247] | – | – | – | Total SFC (human T cells): 1053 SFC; IFNg (human T cells): 1053; IL5 (human T cells): 0; IL13 (human T cells): 0
846 (YIINLIIKNLSKSLT) [compound 846] | – | – | – | Total SFC (human T cells): 1393 SFC; IFNg (human T cells): 1283; IL5 (human T cells): 0; IL13 (human T cells): 0
248 (PSGTWLTYTGAIKLD) [compound 248] | – | – | – | Total SFC (human T cells): 1227 SFC; IFNg (human T cells): 947; IL5 (human T cells): 0; IL13 (human T cells): 0
848 (VKHVYQLRARSVSPK) [compound 848] | – | – | – | Total SFC (human T cells): 3640 SFC; IFNg (human T cells): 2947; IL5 (human T cells): 227; IL13 (human T cells): 0
849 (LYSPIFLIVAAIVFI) [compound 849] | – | – | – | Total SFC (human T cells): 520 SFC; IFNg (human T cells): 400; IL5 (human T cells): 0; IL13 (human T cells): 0
806 (SEETGTLIVNSVLLF) [compound 806] | – | – | – | Total SFC (human T cells): 267 SFC; IFNg (human T cells): 267; IL5 (human T cells): 0; IL13 (human T cells): 0
820 (EEIAIILASFSASTS) [compound 820] | – | – | – | Total SFC (human T cells): 13813 SFC; IFNg (human T cells): 7773; IL5 (human T cells): 1587; IL13 (human T cells): 1507
TITSGWTFGAGAALQ | 9% | 164 | 164 | –
MWLSYFIASFRLFAR | 25% | 343 | 1030 | –
NLYDKLVSSFLEMKS | 8% | 150 | 150 | –
LPFFSNVTWFHAIHV | 9% | 156 | 156 | –
AVMSLKEGQINDMIL | 33% | 104 | 104 | –
PSGTWLTYTGAIKLD [SEQ ID NO 248] | – | – | – | Frequency of response (%) [2]: 42%; Magnitude by # of responding donors [2]: 517; Sum of response [2]: 2583
MKDLSPRWYFYYLGT | 14% | 2536 | 5072 | –
TDTGVEHVTFFIYNK | 7% | 118 | 118 | –
VTQNVLYENQKLIAN | 14% | 353 | 705 | –
RCSFYEDFLEYHDVR | – | – | – | Frequency of response (%) [2]: 36%; Magnitude by # of responding donors [2]: 174; Sum of response [2]: 696
LLEQWNLVIGFLFLT | 13% | 122 | 243 | –
KNPLLYDANYFLCWH [SEQ ID NO 253] | – | 112 | – | Frequency of response (%) [2, 6]: 7%; Sum of response [2, 7]: 112
PVYSFLPGVYSVIYL | 8% | 650 | 650 | –

Substance | Frequency of response (%) [2, 3] | Magnitude by # of responding donors [2, 4] | Sum of response [2, 5] | also measured
SWFTALTQHGKEDLK | 23% | 1088 | 3265 | –
RENNRVVISSDVLVN | 33% | 170 | 170 | –
SFIEDLLFNKVTLAD | – | 406 | – | Frequency of response (%) [2, 6]: 17%; Sum of response [2, 7]: 812
YYRRATRRIRGGDGK | 23% | 197 | 592 | –
YLTFYLTNDVSFLAH | 17% | 358 | 715 | –
KEGQINDMILSLLSK | 33% | 391 | 391 | –
FTINCQEPKLGSLVV | – | – | – | Frequency of response (%) [2]: 27%; Magnitude by # of responding donors [2]: 167; Sum of response [2]: 502
NVPLHGTILTRPLLE | 8% | 263 | 263 | –
RGHLRIAGHHLGRCD | 42% | 472 | 2359 | –
GSSGVVNPVMEPIYD | 7% | 186 | 186 | –
HWFVTQRNFYEPQII | 7% | 598 | 598 | –
VPGLPGTILRTTNGD | 9% | 439 | 439 | –
807 (LAILTALRLCAYCCN) [compound 807] | – | – | – | Total SFC (human T cells): 1800 SFC; IFNg (human T cells): 1760; IL5 (human T cells): 0; IL13 (human T cells): 0
SHRFYRLANECAQVL | 6% | 535 | 535 | –
LYLYALVYFLQSINF | 21% | 124 | 371 | –
QEPKLGSLVVRCSFY | 9% | 124 | 124 | –
FVSGNCDVVIGIVNN | 7% | 180 | 180 | –
CCHLAKALNDFSNSG | 8% | 111 | 111 | –
FYSKWYIRVGARKSA [SEQ ID NO 255] | – | – | – | Frequency of response (%) [2]: 55%; Magnitude by # of responding donors [2]: 468; Sum of response [2]: 2805
ALLAVFQSASKIITL [SEQ ID NO 249] | 9% | 178 | 178 | –
LVAAGLEAPFLYLYA | 9% | 133 | 133 | –
IDAYPLTKHPNQEYA | 14% | 115 | 229 | –
RYLALYNKYKYFSGA | 15% | 708 | 1415 | –
IQWMVMFTPLVPFWI | 8% | 603 | 603 | –

Substance | Frequency of response (%) [2, 3] | Magnitude by # of responding donors [2, 4] | Sum of response [2, 5] | also measured
LMIERFVSLAIDAYP [SEQ ID NO 259] | – | 388 | – | Frequency of response (%) [2, 6]: 36%; Sum of response [2, 7]: 1941
SFLGRYMSALNHTKK | 9% | 219 | 219 | –
SDVLYQPPQTSITSA | 8% | 394 | 394 | –
LIRQGTDYKHWPQIA | 15% | 216 | 431 | –
KTDGTLMIERFVSLA | 7% | 150 | 150 | –
IPFAMQMAYRFNGIG | 18% | 187 | 373 | –
KKPRQKRTATKAYNV | 31% | 227 | 907 | –
VIRGDEVRQIAPGQT | 9% | 180 | 180 | –
FTGYRVTKNSKVQIG | 8% | 116 | 116 | –
TPPIKDFGGFNFSQI | 8% | 421 | 421 | –
LTGTGVLTESNKKFL | 7% | 427 | 427 | –
LGDIAARDLICAQKF | 8% | 153 | 153 | –
TQAFGRRGPEQTQGN | 8% | 151 | 151 | –
SLLIVNNATNVVIKV | – | 164 | – | Frequency of response (%) [2, 6]: 9%; Sum of response [2, 7]: 164
IAGHHLGRCDIKDLP | 25% | 522 | 1565 | –
TRRIRGGDGKMKDLS | 8% | 151 | 151 | –
ILLNKHIDAYKTFPP | 42% | 483 | 2416 | –
LKPFERDISTEIYQA | 17% | 594 | 1188 | –
847 (MKIILFLALITLATC) [compound 847] | – | – | – | Total SFC (human T cells): 373 SFC; IFNg (human T cells): 293; IL5 (human T cells): 0; IL13 (human T cells): 0
RPLLESELVIGAVIL | 8% | 183 | 183 | –
WDLTAFGLVAEWFLA | 8% | 134 | 134 | –
YMSALNHTKKWKYPQ | 9% | 109 | 109 | –

Reference: patent US20230293630A1, “Coronavirus T Cell Epitopes and Uses Thereof” (priority 2020, published 2023)
